Measurements from US20140038953A1, “COMPOSITIONS AND METHODS FOR CARDIOVASCULAR DISEASE” (THE GENERAL HOSPITAL CORPORATION, priority 2011, published 2014).

System: HepG2 cells
Assay: ApoB-100 secretion in HepG2 cells (ELISA)
Type: cell-based, human
Conditions: compound 13 100 nM, atorvastatin 1 nM, ALK3-Fc 400 ng/mL
Protocol: Hepatoma G2 (HepG2) cells and human aortic endothelial cells (HAECs) were purchased from the American type culture collection (Manassas, Va.). HepG2 cells were maintained in Eagle's Minimum Essential Medium (EMEM) supplemented with 10% fetal bovine serum, 100 units/ml of penicillin, 0.1 mg/ml of streptomycin and glutamine. HAECs were cultured in endothelial cell basal medium (EBM 2) supplemented with the EBM2 bullet kit (Lonza, Basel, Switzerland). For experiments, cells were seeded into 6 or 12-well plates (BD Falcon, Franklin Lakes, N.J.) at a concentration of 0.5×10^6 cells per 5 mL of media. HAECs were maintained in EBM 2 with 0.1% FBS without additional growth factors for all experiments. HepG2 cells were grown to 70% confluence before they were incubated in EMEM enriched with 0.1% FBS. ApoB-100 measurements were performed in supernatants from HepG2 that had been incubated in EMEM containing 0.5% bovine serum albumin using a commercially available Human ApoB-100 ELISA kit (Mabtech AB, Nacka Strand, Sweden). BMP2 protein measurements were performed in supernatants from HAECs that had been incubated in EBM2 containing 0.1% FBS using a BMP2 ELISA kit (R&D Systems).

CC(C)c1c(C(=O)Nc2ccccc2)c(-c2ccccc2)c(-c2ccc(F)cc2)n1CC[C@@H](O)C[C@@H](O)CC(=O)O [Atorvastatin, atorvastatin, reference compound]
BMP2-induced ApoB-100 secretion (BMP2 100 ng/mL): did not prevent the induction of ApoB-100 synthesis by BMP2
basal ApoB-100 secretion (absence of BMP2): reduced basal apolipoprotein B100 (ApoB-100) secretion
basal ApoB-100 secretion (absence of BMP2) (listed as atorvastatin): reduced ApoB-100 production in the absence of BMP2
